According to ChEMBL document CHEMBL1146891, “Preparation of 1-(3-aminobenzo[d]isoxazol-5-yl)-1H-pyrazolo[4,3-d]pyrimidin-7(6H)-ones as potent, selective, and efficacious inhibitors of coagulation factor Xa” (Bioorg Med Chem Lett, 2006):

Assays:
[1] = target: Coagulation factor X (Homo sapiens, UniProt P00742); experiment: Binding affinity to human f10a
[2] = target: Prothrombin (Homo sapiens, UniProt P00734); experiment: Binding affinity to human thrombin
[3] = target: Trypsin (Homo sapiens, UniProt P07477+P07478+P35030); experiment: Binding affinity to human trypsin; assay type: protein assay
[4] = target: Vitamin K-dependent protein C (Homo sapiens, UniProt P04070); experiment: Binding affinity to human activated protein C
[5] = target: Coagulation factor IX (Homo sapiens, UniProt P00740); experiment: Binding affinity to human f9a
[6] = target: Plasminogen (Homo sapiens, UniProt P00747); experiment: Binding affinity to human plasmin
[7] = target: Tissue-type plasminogen activator (Homo sapiens, UniProt P00750); experiment: Binding affinity to human tPA
[8] = target: Urokinase-type plasminogen activator (Homo sapiens, UniProt P00749); experiment: Binding affinity to human urokinase
[9] = target: Chymotrypsinogen B (Homo sapiens, UniProt P17538); experiment: Binding affinity to human chymotrypsin
[10] = target: T1, Coagulation factor X (Oryctolagus cuniculus, UniProt O19045); experiment: Binding affinity to rabbit f10a
T1 sequence (O19045 whole entry): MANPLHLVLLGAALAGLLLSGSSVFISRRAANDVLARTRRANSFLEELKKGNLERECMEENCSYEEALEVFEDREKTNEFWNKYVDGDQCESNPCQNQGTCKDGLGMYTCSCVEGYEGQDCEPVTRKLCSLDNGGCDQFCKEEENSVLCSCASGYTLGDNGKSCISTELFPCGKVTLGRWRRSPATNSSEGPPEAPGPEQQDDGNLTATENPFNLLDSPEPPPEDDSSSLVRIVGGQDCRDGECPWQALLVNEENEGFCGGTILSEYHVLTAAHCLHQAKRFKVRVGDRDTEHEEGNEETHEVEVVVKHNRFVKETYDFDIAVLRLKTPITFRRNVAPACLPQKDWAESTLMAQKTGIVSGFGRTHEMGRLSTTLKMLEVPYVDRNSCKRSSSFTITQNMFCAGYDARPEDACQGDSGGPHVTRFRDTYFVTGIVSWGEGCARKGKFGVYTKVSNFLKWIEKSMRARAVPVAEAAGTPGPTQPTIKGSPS

[11] = test system: Oryctolagus cuniculus; experiment: Inhibition of thrombus formation in iv dosed rabbit arterio-venous shunt model; assay type: functional, organism-based
[12] = Stability at pH 1.0; assay type: physicochemical; conditions: buffer
[13] = Stability at pH 4.0; assay type: physicochemical; conditions: buffer

Chain of Coagulation factor X (Homo sapiens, UniProt P00742) (P00742 41-179 limits assumed): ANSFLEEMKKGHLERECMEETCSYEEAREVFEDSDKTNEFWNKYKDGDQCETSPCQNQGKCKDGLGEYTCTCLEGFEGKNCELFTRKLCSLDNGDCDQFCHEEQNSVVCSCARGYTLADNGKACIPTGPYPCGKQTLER
Chain of Coagulation factor X (Homo sapiens, UniProt P00742) (P00742 235-488 limits assumed): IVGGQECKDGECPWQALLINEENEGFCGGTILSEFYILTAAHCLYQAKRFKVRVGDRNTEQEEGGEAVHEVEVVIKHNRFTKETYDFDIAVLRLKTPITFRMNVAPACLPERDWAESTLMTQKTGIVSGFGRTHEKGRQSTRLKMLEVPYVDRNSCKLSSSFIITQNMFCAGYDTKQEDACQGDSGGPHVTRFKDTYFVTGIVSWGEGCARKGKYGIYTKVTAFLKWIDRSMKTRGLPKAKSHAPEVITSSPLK
Chain of Vitamin K-dependent protein C (P04070 43-197 limits assumed): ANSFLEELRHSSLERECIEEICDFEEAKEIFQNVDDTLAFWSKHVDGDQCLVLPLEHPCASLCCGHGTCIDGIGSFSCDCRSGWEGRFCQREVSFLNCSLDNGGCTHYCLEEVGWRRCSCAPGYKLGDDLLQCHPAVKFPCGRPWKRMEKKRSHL
Chain of Vitamin K-dependent protein C (P04070 212-461 limits assumed): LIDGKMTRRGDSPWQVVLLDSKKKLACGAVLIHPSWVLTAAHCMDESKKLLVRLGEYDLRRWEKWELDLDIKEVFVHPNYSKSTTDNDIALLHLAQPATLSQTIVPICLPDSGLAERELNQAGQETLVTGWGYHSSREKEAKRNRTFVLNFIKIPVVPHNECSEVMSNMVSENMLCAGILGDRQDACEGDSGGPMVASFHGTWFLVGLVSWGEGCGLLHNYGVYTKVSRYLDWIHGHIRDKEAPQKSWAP
Chain of Tissue-type plasminogen activator (P00750 whole entry): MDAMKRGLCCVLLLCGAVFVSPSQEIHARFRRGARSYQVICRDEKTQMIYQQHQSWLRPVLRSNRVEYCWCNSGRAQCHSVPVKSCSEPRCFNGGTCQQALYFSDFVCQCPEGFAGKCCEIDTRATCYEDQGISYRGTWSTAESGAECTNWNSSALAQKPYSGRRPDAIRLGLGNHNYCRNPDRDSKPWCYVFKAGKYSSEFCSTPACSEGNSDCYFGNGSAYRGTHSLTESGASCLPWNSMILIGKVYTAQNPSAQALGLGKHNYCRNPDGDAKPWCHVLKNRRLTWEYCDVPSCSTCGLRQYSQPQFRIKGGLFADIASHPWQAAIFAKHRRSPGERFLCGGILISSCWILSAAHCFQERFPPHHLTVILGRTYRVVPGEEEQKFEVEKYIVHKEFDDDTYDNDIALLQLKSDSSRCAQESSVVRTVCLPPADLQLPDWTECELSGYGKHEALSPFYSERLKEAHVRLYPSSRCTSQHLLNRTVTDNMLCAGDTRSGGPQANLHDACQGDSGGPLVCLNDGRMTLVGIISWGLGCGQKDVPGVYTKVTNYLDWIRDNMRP
Chain of Coagulation factor IX (P00740 47-191 limits assumed): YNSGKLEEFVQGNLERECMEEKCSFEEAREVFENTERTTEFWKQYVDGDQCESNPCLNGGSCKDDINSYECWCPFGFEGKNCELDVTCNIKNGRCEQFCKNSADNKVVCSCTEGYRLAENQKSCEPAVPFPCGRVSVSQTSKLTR
Chain of Coagulation factor IX (P00740 227-461 limits assumed): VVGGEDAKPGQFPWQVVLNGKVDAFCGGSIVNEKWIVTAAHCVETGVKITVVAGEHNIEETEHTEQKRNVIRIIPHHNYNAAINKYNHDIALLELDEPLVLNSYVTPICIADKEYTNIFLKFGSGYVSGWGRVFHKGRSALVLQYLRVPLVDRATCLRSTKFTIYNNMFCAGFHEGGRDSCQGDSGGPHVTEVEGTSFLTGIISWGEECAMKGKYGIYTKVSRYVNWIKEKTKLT
Chain of Plasminogen (P00747 97-580 limits assumed): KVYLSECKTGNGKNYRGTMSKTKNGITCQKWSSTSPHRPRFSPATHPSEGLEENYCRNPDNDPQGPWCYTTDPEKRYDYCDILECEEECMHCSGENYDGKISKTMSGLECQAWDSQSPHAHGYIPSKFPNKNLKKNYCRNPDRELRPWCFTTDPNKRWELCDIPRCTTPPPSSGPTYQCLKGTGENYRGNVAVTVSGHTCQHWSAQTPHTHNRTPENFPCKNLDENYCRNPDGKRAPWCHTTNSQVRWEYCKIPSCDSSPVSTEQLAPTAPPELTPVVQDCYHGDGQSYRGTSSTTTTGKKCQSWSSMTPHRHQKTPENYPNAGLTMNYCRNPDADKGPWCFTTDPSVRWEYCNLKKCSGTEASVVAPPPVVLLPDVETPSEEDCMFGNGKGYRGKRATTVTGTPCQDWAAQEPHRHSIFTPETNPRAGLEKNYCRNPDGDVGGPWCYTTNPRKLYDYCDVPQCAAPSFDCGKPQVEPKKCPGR
Chain of Plasminogen (P00747 581-810 limits assumed): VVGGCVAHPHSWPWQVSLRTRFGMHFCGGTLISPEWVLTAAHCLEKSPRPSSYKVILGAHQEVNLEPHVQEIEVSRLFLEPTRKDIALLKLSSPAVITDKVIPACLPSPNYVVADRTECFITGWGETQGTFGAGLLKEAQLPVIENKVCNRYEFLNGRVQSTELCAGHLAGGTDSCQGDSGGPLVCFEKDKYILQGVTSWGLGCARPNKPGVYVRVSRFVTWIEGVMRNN
Chain of Chymotrypsinogen B (P17538 34-164 limits assumed, other chains not shown): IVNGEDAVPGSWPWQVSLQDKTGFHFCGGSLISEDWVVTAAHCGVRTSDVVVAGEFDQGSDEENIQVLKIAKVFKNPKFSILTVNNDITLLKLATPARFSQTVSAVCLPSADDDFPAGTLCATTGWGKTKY
Chain of Chymotrypsinogen B (P17538 167-263 limits assumed, other chains not shown): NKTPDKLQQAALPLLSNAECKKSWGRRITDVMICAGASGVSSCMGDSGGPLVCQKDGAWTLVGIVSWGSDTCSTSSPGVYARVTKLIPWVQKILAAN

Ki [1]: 0.27 nM
Ki [2]: 305 nM
Ki [3]: > 4200 nM
Ki [4]: 19000 nM
Ki [5]: > 41000 nM
Ki [6]: > 15000 nM
Ki [7]: 23000 nM
Ki [8]: > 13000 nM
Ki [9]: 960 nM
Ki [10]: 0.3 nM
Stability [12]: 89.7%
Stability [13]: 94.7%
Compound: Cc1nn(-c2ccc3onc(N)c3c2)c2c(=O)n(-c3ccc(-c4ccccc4CN(C)C)cc3)c(C)nc12
ID50 [11]: 2 µmol/kg/h
